Measurements published in EP1683523A1, “2-Phenylquinoxalines as inhibitors for MPP1” (MAX-PLANCK-GESELLSCHAFT ZUR FÖRDERUNG DER WISSENSCHAFTEN …, priority 2005, dated 2006).

Experiments:
Hela S3 cells = test: Cellular phenotype: binucleate phenotype; assay type: cell-based; settings: Fig. 3
[1] = target: T1, His-tagged human MPP1 construct (Aa 1-533) (Homo sapiens, UniProt Q96Q89); test: Malachite-green based in vitro microtubule-stimulated ATPase assay (potency study); assay type: biochemical; settings: microtubule-stimulated ATPase activity, DMSO as solvent control, Fig. 1
T1 construct: a His-tagged human MPP1 construct (Aa 1-533); His
T1 sequence (Q96Q89 1-533): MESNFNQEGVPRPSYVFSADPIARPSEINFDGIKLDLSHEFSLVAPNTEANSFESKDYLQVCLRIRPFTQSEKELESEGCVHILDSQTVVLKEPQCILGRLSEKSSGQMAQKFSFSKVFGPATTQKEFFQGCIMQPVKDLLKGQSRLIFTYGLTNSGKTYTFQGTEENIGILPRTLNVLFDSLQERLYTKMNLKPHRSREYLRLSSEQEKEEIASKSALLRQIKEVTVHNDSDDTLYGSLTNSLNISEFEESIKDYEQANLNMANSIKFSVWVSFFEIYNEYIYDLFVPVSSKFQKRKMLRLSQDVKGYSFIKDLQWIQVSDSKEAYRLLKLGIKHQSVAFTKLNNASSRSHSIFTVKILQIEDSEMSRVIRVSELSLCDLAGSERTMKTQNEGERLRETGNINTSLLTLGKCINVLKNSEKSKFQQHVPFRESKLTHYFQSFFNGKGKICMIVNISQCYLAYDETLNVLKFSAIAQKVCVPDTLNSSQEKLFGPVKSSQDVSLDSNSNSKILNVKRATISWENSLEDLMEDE
Procedure: The 2-phenylquinoxaline derivatives were measured be means of a malachite-green based (Itaya K. and UI, M. (1966), A new micromethod for the colorimetric determination of inorganic phosphate; Clin. Chim. Acta, 14: 362 - 366) in vitro ATPase assay. For this assay the microtubule-stimulated ATPase activity of a His-tagged human MPP1 construct (Aa 1-533) in the presence of small molecules or DMSO as a solvent control were measured. These studies are done in 384-well plates in which individual compounds of a large compound collection are transferred into each well using a liquid handling robot.
The potency of 5-chloro-2-(3,4-dichlorophenyl)-7-(trifluoromethyl)quinoxaline as a representative example of the 2-phenylquinoxaline derivatives of general formula (I) was determined by measuring MPP1's microtubule-stimulated ATPase activity in vitro in the presence of 5-chloro-2-(3,4-dichlorophenyl)-7-(trifluoromethyl)-quinoxaline or DMSO as a solvent control. For these studies a malachite green assay which allows the quantification of free phosphate (Pi) in solution was used.

[2] = test system: BSC-1 (African green monkey) cells; test: Cellular phenotype: count of binucleated cells; assay type: cell-based; settings: Chlorocebus sabaeus; synchronized BSC-1 cells, released from thymidine-block for three hours, treated for 18 hours; at least 200 cells counted per concentration; read-out: EC50, induction of a binucleate phenotype in BSC-1
Procedure: Concerning the study the function of MPP1 in living cells, it was tested whether 5-chloro-2-(3,4-dichlorophenyl)-7-(trifluoromethyl)quinoxaline induces a phenotype similar to the one obtained by RNAi-mediated depletion of MPP1. For these studies we treated synchronized BSC-1 (African green monkey) cells with 5-chloro-2-(3,4-dichlorophenyl)-7-(trifluoromethyl)quinoxaline or DMSO as a solvent control.
BSC-1 cells were released from thymidine-block for three hours and then treated with 50µM or the indicated concentrations of 5-chloro-2-(3,4-dichlorophenyl)-7-(trifluoromethyl)quinoxaline for 18 hours. Treated cells were fixed with formaledehyde-containing buffer and the DNA and microtubule cytoskeleton were visualized with Hoechst and FITC-labled anti-tubulin antibody, respectively. The number of binucleated cells was determined by manual counting of at least 200 cells per concentration.

[3] = test system: cellular processes known to be independent of MPP1 function; test: Specificity in vivo: effect on cellular processes independent of MPP1; assay type: cell-based; settings: golgi/lysosome localization, actin/microtubule cytoskeleton in interphase, protein synthesis, S to M-phase cell cycle progression, wound healing
Description: For the specificity in vivo studies, the effect of 5-chloro-2-(3,4-dichlorophenyl)-7-(trifluoromethyl)quinoxaline on cellular processes known to be independent of MPP1 function, e.g. golgi/lysosome localization, actin/microtubule cytoskeleton in interphase, protein synthesis, S to M-phase cell cycle progression, and wound healing was investigated.

Eg5 = target: T2, Eg5 (Homo sapiens, UniProt P52732); test: Malachite-green in vitro microtubule-stimulated ATPase assay (specificity); assay type: biochemical; settings: Fig. 2
T2 sequence (P52732 1-1056): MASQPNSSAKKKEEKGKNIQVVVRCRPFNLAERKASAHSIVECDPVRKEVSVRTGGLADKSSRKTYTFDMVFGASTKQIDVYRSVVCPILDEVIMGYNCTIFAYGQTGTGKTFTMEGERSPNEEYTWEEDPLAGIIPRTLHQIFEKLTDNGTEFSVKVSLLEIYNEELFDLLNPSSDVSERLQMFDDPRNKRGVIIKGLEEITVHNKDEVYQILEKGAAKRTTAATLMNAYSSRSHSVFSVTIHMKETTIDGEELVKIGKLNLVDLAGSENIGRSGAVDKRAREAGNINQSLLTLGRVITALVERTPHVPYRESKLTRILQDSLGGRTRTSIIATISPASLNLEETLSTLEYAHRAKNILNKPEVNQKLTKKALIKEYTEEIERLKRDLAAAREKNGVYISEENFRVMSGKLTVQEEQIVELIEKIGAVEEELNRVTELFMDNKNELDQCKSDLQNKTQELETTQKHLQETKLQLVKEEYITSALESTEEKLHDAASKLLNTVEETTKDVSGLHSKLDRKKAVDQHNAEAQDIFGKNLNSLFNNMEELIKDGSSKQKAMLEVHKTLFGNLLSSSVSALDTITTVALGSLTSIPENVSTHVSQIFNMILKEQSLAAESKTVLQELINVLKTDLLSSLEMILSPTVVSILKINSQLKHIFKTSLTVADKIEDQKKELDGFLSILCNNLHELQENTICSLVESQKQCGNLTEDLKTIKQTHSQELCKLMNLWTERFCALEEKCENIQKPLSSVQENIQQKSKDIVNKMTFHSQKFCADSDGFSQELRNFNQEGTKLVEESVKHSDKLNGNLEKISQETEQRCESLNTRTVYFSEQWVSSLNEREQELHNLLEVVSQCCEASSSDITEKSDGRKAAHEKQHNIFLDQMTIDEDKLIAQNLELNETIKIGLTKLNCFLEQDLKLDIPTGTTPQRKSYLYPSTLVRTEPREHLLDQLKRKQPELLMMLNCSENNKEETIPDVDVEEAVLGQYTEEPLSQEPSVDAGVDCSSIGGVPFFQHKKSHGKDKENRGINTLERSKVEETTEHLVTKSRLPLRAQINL
Procedure: (§1) The specificity of 5-chloro-2-(3,4-dichlorophenyl)-7-(trifluoromethyl)quinoxaline was determined by measuring its effect on the microtubule-stimulated in vitro ATPase activities of the kinesins Eg5, Kif4, Mklp1, and Mklp2.

Mklp2 = target: T3, Mklp2 (Homo sapiens, UniProt O95235); test: as above; assay type: biochemical; settings: Fig. 2
T3 sequence (O95235 1-890): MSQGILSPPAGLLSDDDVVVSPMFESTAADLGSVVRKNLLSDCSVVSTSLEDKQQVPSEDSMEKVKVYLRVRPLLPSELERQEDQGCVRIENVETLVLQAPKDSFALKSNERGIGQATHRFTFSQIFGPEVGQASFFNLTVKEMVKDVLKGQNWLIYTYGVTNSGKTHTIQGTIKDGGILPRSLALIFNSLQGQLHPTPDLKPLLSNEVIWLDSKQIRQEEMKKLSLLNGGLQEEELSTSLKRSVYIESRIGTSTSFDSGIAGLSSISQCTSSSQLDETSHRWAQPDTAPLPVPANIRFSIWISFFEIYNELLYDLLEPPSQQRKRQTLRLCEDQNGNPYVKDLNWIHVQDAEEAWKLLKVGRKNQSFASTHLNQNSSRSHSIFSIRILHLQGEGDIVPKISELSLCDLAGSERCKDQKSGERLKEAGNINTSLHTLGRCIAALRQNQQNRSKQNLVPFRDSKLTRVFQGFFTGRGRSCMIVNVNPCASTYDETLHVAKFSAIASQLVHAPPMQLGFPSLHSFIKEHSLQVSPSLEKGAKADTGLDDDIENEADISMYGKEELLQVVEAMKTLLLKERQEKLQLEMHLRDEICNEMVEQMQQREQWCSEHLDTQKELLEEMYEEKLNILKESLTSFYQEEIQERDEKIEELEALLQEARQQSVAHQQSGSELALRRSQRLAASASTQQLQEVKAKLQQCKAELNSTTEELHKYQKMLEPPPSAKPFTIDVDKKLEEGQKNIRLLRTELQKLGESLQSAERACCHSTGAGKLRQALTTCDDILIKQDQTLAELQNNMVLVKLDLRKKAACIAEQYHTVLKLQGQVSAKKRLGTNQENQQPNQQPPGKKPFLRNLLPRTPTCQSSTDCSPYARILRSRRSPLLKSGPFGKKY
Procedure: as §1

Kif4 = target: T4, Kif4 (Homo sapiens, UniProt O95239); test: as above; assay type: biochemical; settings: Fig. 2
T4 sequence (O95239 1-1232): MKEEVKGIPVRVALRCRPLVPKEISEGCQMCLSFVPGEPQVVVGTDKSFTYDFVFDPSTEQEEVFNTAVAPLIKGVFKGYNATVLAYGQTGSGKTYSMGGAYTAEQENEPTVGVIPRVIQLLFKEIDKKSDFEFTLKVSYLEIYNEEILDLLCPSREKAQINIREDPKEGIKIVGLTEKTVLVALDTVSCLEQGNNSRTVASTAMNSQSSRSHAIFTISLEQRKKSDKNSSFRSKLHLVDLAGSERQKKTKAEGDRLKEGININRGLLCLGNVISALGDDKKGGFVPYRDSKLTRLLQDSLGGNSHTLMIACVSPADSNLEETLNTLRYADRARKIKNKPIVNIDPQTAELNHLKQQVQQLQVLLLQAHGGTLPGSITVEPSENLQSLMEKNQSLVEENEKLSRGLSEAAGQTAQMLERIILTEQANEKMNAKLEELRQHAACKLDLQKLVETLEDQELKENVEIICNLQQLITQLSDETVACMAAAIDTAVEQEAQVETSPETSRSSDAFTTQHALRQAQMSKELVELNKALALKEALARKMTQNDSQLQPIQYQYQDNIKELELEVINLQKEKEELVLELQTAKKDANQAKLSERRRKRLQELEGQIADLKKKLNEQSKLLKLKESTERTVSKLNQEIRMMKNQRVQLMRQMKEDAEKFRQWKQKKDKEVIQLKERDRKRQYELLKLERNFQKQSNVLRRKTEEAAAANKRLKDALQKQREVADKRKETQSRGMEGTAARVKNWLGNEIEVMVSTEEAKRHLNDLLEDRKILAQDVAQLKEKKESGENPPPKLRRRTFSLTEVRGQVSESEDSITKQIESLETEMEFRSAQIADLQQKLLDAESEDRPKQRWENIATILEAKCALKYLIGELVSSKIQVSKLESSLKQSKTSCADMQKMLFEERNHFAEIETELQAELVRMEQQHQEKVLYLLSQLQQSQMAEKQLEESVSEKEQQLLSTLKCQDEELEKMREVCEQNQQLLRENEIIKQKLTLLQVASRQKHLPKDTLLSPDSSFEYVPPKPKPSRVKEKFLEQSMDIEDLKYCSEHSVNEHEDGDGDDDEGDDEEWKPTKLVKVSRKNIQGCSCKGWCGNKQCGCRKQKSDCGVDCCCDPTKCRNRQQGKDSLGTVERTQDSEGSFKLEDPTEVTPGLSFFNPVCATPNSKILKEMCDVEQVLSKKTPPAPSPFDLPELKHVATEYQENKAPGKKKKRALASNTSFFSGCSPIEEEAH
Procedure: as §1

Mklp1 = target: T5, Mklp1 (Homo sapiens, UniProt Q02241); test: as above; assay type: biochemical; settings: Fig. 2
T5 sequence (Q02241 1-960): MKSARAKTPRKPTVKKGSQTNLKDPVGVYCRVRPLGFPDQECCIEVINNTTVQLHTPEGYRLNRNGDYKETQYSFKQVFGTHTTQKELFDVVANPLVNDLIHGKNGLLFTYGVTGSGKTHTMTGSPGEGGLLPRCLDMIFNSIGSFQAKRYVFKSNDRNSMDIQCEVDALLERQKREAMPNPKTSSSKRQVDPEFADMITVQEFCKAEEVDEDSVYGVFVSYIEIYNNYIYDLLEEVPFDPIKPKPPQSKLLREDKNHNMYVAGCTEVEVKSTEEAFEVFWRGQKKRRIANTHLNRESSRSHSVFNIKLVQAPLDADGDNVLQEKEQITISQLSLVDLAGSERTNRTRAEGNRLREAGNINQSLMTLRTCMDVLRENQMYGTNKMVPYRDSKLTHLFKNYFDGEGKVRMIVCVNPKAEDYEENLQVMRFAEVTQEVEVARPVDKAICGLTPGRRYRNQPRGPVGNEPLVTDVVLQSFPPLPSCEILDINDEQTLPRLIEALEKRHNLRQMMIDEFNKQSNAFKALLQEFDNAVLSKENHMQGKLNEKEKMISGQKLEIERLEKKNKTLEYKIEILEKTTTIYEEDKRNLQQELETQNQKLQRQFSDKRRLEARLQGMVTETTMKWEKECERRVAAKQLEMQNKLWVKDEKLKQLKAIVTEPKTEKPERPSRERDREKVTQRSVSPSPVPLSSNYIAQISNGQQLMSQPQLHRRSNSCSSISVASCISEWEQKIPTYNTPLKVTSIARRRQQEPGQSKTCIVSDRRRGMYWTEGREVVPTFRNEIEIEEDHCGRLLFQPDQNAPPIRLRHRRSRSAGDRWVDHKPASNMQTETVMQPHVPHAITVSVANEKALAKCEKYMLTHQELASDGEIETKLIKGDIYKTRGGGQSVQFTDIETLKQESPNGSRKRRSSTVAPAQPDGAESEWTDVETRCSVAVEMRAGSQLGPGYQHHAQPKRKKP
Procedure: as §1

SMILES: FC(F)(F)c1cc(Cl)c2ncc(-c3ccc(Cl)c(Cl)c3)nc2c1 [5-chloro-2-(3,4-dichlorophenyl)-7-(trifluoromethyl)quinoxaline]
- binucleate phenotype in Hela S3 cells (Hela S3 cells): induces a binucleate phenotype
- IC50 [1]: ~40 µM
- EC50 [2]: ~50 µM
- effect on the tested cellular processes [3]: no observable effect
- effect on the in vitro ATPase activity of Eg5 (Eg5): no significant effect
- effect on the in vitro ATPase activity of Mklp2 (Mklp2): no significant effect
- effect on the in vitro ATPase activity of Kif4 (Kif4): no significant effect
- effect on the in vitro ATPase activity of Mklp1 (Mklp1): no significant effect
